Test results from ChEMBL document CHEMBL1121676, “1980 Award in Medicinal Chemistry: Medicinal chemistry and dynamic structure-activity analysis in the discovery of drugs acting at histamine H2 receptors” (1981).
The source made the active and inactive calls. The rule behind the calls is not given here.

Key:
[1] = test system: Rattus norvegicus; assay: Tested for inhibition of histamine-stimulated gastric acid secretion in the lumen-perfused anesthetized rat expressed as intravenous dose which reduces a near maximal secretion to 50%; detectable; type: functional, organism-based; conditions: Stomach
[2] = test system: Rattus norvegicus; assay: Tested for inhibition of histamine-stimulated gastric acid secretion in the lumen-perfused anesthetized rat expressed as intravenous dose which reduces a near maximal secretion to 50%; type: functional; conditions: Stomach, read-out: ID50 (the source's name)

SMILES | ID50 [1] | ED50 [2]
CC(=N)NCCc1c[nH]cn1 | detectable | –
CSC(=N)NCCc1c[nH]cn1 | detectable | –
N=C(N)SCCCc1c[nH]cn1 | inactive | –
CSC(=N)NCCCc1c[nH]cn1 | – | 100 µmol/kg
N=C(N)NCCc1c[nH]cn1 | – | > 500 µmol/kg
N=C(N)NCCCc1c[nH]cn1 | – | 100 µmol/kg
CC(=N)NCCCc1c[nH]cn1 | – | 100 µmol/kg
N=C(N)SCCc1c[nH]cn1 [IMETIT] | – | 200 µmol/kg
